Literature values, collected in patent US20240050377A1, “ORAL SOLID CANNABINOID OIL COMPOSITION FOR TREATING CENTRAL NERVOUS SYSTEM DISORDERS” (SOCIETE DES PRODUITS NESTLE S.A., priority 2021, published 2024).
“And” between values parts separate entries of the source, which are not always exact repeats. Equal values may be shown once. Read-outs that look alike come from different tables or passages of the source.

Legend:
[1] = low pH of the stomach; simulated gastric fluid
[2] = humans

Compound: C=C(C)[C@@H]1CCC(C)=C[C@H]1c1c(O)cc(CCCCC)cc1O [CBD, cannabidiol]
- degradation in stomach environment [1]: high levels of CBD degradation
- mean half-life ([2]; aerosol administration): 1.1 to 2.4 h
- mean half-life ([2]; oral lipid capsule administration): 2.95 h and 3.21 h
- mean half-life ([2]; single oral administration): 1.09 to 1.97 h
